Literature values as cited in patent publication US20110015182A1, “NOVEL CARBAMATE AMINO ACID AND PEPTIDE PRODRUGS OF OPIOIDS AND USES THEREOF” (priority 2009, published 2011).

Experiments:
[1] = Norbury et al. (1983)
[2] = concurrent oral administration with various opioids; Linn and Steinbrook (2007)

Compound | range of observed oral bioavailabilities [1] | adverse GI effects of opioids (constipation, nausea and vomiting) [2]
CCC1(c2cccc(O)c2)CCCCN(C)C1 (centres unmarked) [meptazinol] | 2-20% | –
C[C@H]1CN(C[C@H](Cc2ccccc2)C(=O)NCC(=O)O)CC[C@@]1(C)c1cccc(O)c1 [alvimopan] | – | markedly reduce
